Experimental data taken from the SangsterLogP compilation.

Assay: method code SF-HPLC, from DOI: 10.1002/(sici)1521-3838(199911)18:5<482::aid-qsar482>3.0.co;2-r
Conditions: pH 6.4

Row | Structure (SMILES) | logD
1 | S=c1[nH]nc(Cn2ccc3ccccc32)n1-c1ccccc1 | 2.68
2 | S=c1[nH]nc(Cn2ccc3cc(Br)ccc32)n1-c1cccc2ccccc12 | 3.88
3 | Cc1ccc(-n2c(Cn3ccc4ccccc43)n[nH]c2=S)cc1 | 3.2
4 | c1ccc2c(Nc3nnc(Cn4ccc5ccccc54)s3)cccc2c1 | 4.54
5 | O=[N+]([O-])c1ccc2c(ccn2Cc2n[nH]c(=S)n2-c2ccccc2)c1 | 2.65
6 | Cc1ccc(-n2c(Cc3c(C)[nH]c4ccccc34)n[nH]c2=S)cc1 | 3
7 | Cc1ccc(-n2c(Cn3ccc4cc([N+](=O)[O-])ccc43)n[nH]c2=S)cc1 | 3.17

Now from value to compound:

Row | logD | Structure (SMILES)
8 | 3.99 | Cc1ccc(Nc2nnc(Cn3ccc4ccccc43)s2)cc1
9 | 2.55 | Cc1[nH]c2ccccc2c1Cc1n[nH]c(=S)n1-c1ccccc1
10 | 3.11 | Cc1[nH]c2ccccc2c1Cc1nnc(Nc2ccccc2)s1
